Experimental data published in ChEMBL document CHEMBL4033787, “Glutathione S-Transferase π-Activatable O2-(Sulfonylethyl Derived) Diazeniumdiolates Potently Suppress Melanoma in Vitro and in Vivo” (J Med Chem, 2018).
Blank lines part the entries; values can stand above or below the molecule they belong to. Activity calls are given as the source filed them. No cut-off for these calls is given here.

Columns and labels:
B16 [1] = assay: Antiproliferative activity against mouse B16 cells at 1 uM after 72 hrs by MTT assay; assay type: functional, cell-based
HT-29 = assay: Antiproliferative activity against human HT-29 cells at 1 uM after 72 hrs by MTT assay; assay type: functional, cell-based
MCF7 [2] = assay: Antiproliferative activity against human MCF7 cells at 1 uM after 72 hrs by MTT assay; assay type: functional, cell-based
9L-2 = assay: Antiproliferative activity against rat 9L-2 cells at 1 uM after 72 hrs by MTT assay; assay type: functional, cell-based
B16 [3] = assay: Antiproliferative activity against mouse B16 cells after 72 hrs by MTT assay; assay type: functional, cell-based; conditions: B16, 72 h
MCF7 [4] = assay: Antiproliferative activity against human MCF7 cells after 72 hrs by MTT assay; assay type: functional, cell-based; conditions: MCF7, 72 h
[5] = Antiproliferative activity against mouse JB6 Cl 30-7b cells after 72 hrs by MTT assay; assay type: cell-based
[6] = Selectivity index, ratio of IC50 for mouse JB6 Cl 30-7b cells to IC50 for mouse B16 cells; assay type: functional
[7] = Substrate activity at GST-Pi in mouse B16 cells assessed as increase in NO release after 8 hrs by DAF-FM DA dye-based flow cytometric analysis; assay type: ADME, cell-based
[8] = Substrate activity at GST-Pi in mouse B16 cells assessed as increase in NO release at 20 uM by Griess assay; assay type: ADME, cell-based; conditions: TDE = time-dependent effect
[9] = Substrate activity at GST-Pi in mouse JB6 Cl 30-7b cells assessed as NO release at 20 uM after 8 hrs by Griess assay; assay type: ADME, cell-based
B16 [10] = assay: Antiproliferative activity against mouse B16 cells at 3 uM after 24 hrs in presence of NO scavenger hemoglobin by MTT assay; assay type: functional, cell-based
B16 [11] = assay: Antiproliferative activity against mouse B16 cells at 3 uM after 24 hrs in presence of NO scavenger carboxy-PTIO by MTT assay; assay type: functional, cell-based
B16 [12] = assay: Antiproliferative activity against mouse B16 cells at 3 uM after 24 hrs in presence of GST-Pi inhibitor etacrynic acid by MTT assay; assay type: functional, cell-based
[13] = Drug metabolism assessed as GST-Pi (unknown origin)-mediated compound decomposition at 40 uM by UV spectrophotometric analysis; assay type: ADME; conditions: human, TDE = time-dependent effect
[14] = Drug metabolism assessed as GSTalpha (unknown origin)-mediated compound decomposition at 40 uM by UV spectrophotometric analysis; assay type: ADME; conditions: human
B16 [15] = assay: Antitumor activity against mouse B16 cells implanted in iv dosed nude mouse assessed as reduction in tumor volume administered every other day for 20 days; assay type: functional, organism-based
B16 [16] = assay: Antitumor activity against mouse B16 cells implanted in iv dosed nude mouse assessed as reduction in tumor weight administered every other day for 20 days; assay type: functional, organism-based
B16 [17] = assay: Induction of nitration of mitochondrial cytochrome C in mouse B16 cells assessed as increase in nitrated cytochrome C levels at 10 uM after 24 hrs by Western blot analysis; assay type: functional, cell-based
B16 [18] = assay: Antitumor activity against mouse B16 cells implanted in nude mouse assessed as inhibition of tumor growth at 15 mg/kg, iv administered every other day for 20 days relative to control; assay type: functional; conditions: 480 h, read-out: TGI
B16 [19] = assay: Antitumor activity against mouse B16 cells implanted in nude mouse assessed as inhibition of tumor growth at 7.5 mg/kg, iv administered every other day for 20 days relative to control; assay type: functional; conditions: 480 h, read-out: TGI
B16 [20] = assay: Antitumor activity against mouse B16 cells implanted in nude mouse assessed as inhibition of tumor growth at 30 mg/kg, iv administered every other day for 20 days relative to control; assay type: functional; conditions: 480 h, read-out: TGI
Mus musculus [21] = assay: Toxicity in mouse assessed as mortality at 7.5 to 30 mg/kg, iv dosed for every other day for 20 days; assay type: organism-based; conditions: in vivo, 480 h
Mus musculus [22] = assay: Toxicity in mouse assessed as weight loss at 7.5 to 30 mg/kg, iv dosed for every other day for 20 days; assay type: organism-based; conditions: in vivo, 480 h
B16 [23] = assay: Induction of nitration of mitochondrial cytochrome C in mouse B16 cells assessed as increase in nitrated cytochrome C levels at 10 uM after 24 hrs in presence of NO scavenger hemoglobin by Western blot analysis; assay type: functional, cell-based
B16 [24] = assay: Induction of nitration of mitochondrial cytochrome C in mouse B16 cells implanted in iv dosed mouse assessed as increase in nitrated cytochrome C levels administered every other day for 20 days by Western blot analysis; assay type: functional, organism-based
[25] = Stability of compound in normal saline after 500 mins by UV spectrophotometric analysis; assay type: physicochemical; conditions: buffer
B16 [26] = assay: Antiproliferative activity against mouse B16 cells after 72 hrs in presence of equimolar concentration of 4-hydroxy-1-(oxido-NNO-azoxy)piperidine by MTT assay; assay type: functional, cell-based; conditions: B16, 72 h
B16 [27] = assay: Antiproliferative activity against mouse B16 cells after 72 hrs in presence of equimolar concentration of (S)-2-amino-5-((R)-1-(carboxymethylamino)-1-oxo-3-(vinylsulfonyl)propan-2-ylamino)-5-oxopentanoic acid by MTT assay; assay type: functional, cell-based; conditions: B16, 72 h

SMILES: N[C@@H](CCC(=O)N[C@@H](CS(=O)(=O)CCO/N=[N+](\[O-])N1CCC(O)CC1)C(=O)NCC(=O)O)C(=O)O
Activity (B16 [1]): Active | Activity (HT-29): Active | Activity (MCF7 [2]): Active | Activity (9L-2): inactive | IC50 (B16 [3]): 184 nM | IC50 (MCF7 [4]): 306 nM | IC50 [5]: 1400 nM | Ratio IC50 [6]: 8 | Drug metabolism [7]: Dose-dependent effect | Drug metabolism [8]: Tde | Drug metabolism [9]: Metabolite_Notdetected | Activity (B16 [10]): inactive | Activity (B16 [11]): inactive | Activity (B16 [12]): inactive | Drug metabolism [13]: Tde | Drug metabolism [14]: Metabolite_Notdetected | Activity (B16 [15]): Dose-dependent effect | Activity (B16 [16]): Dose-dependent effect | Activity (B16 [17]): Active | inhibition in vivo at 15 mg/kg (B16 [18]): 76.2% | inhibition in vivo at 7.5 mg/kg (B16 [19]): 42.3% | inhibition in vivo at 30 mg/kg (B16 [20]): 84.8% | Activity (Mus musculus [21]): Non-Toxic | Activity (Mus musculus [22]): Non-Toxic | Activity (B16 [23]): Active | Activity (B16 [24]): Dose-dependent effect | Stability [25]: Stable

IC50 (B16 [3]): 1910 nM | IC50 (B16 [26]): 553 nM
SMILES: C=CS(=O)(=O)C[C@H](NC(=O)CC[C@H](N)C(=O)O)C(=O)NCC(=O)O
Activity (B16 [23]): inactive

SMILES: N[C@@H](CCC(=O)N[C@@H](CS(=O)(=O)CCO/N=[N+](\[O-])N1CCCC1CO)C(=O)NCC(=O)O)C(=O)O (stereo not given in full)
Activity (B16 [1]): Active | Activity (HT-29): Active | Activity (MCF7 [2]): Active | Activity (9L-2): inactive

SMILES: CCOC(=O)CNC(=O)[C@H](CS(=O)(=O)CCO/N=[N+](\[O-])N(CCCl)CCCl)NC(=O)CC[C@H](N)C(=O)OCC
Activity (B16 [1]): Active | Activity (HT-29): Active | Activity (MCF7 [2]): Active | Activity (9L-2): inactive

SMILES: CCOC(=O)N1CCN(/[N+]([O-])=N/Oc2ccc([N+](=O)[O-])cc2[N+](=O)[O-])CC1
IC50 (B16 [3]): 1340 nM | IC50 (MCF7 [4]): 993 nM | Drug metabolism [9]: Metabolite_Notdetected

SMILES: N[C@@H](CCC(=O)N[C@@H](CS(=O)(=O)CCO/N=[N+](\[O-])N(CCCl)CCCl)C(=O)NCC(=O)O)C(=O)O
Activity (B16 [1]): Active | Activity (HT-29): Active | Activity (MCF7 [2]): Active | Activity (9L-2): inactive | IC50 (B16 [3]): 404 nM | IC50 (MCF7 [4]): 611 nM

SMILES: COC(=O)CNC(=O)[C@H](CS(=O)(=O)CCO/N=[N+](\[O-])N(CCCl)CCCl)NC(=O)CC[C@H](N)C(=O)OC
Activity (B16 [1]): Active | Activity (HT-29): Active | Activity (MCF7 [2]): Active | Activity (9L-2): inactive

SMILES: N[C@@H](CCC(=O)N[C@@H](CS(=O)(=O)CCO/N=[N+](\[O-])N1CCCC1)C(=O)NCC(=O)O)C(=O)O
Activity (B16 [1]): Active | Activity (HT-29): Active | Activity (MCF7 [2]): Active | Activity (9L-2): inactive

SMILES: N[C@@H](CCC(=O)N[C@@H](CS(=O)(=O)CCOP(=O)(N(CCCl)CCCl)N(CCCl)CCCl)C(=O)N[C@@H](C(=O)O)c1ccccc1)C(=O)O [CANFOSFAMIDE]
IC50 (B16 [3]): 710 nM | IC50 (MCF7 [4]): 870 nM

SMILES: CN(C)/N=N/c1[nH]cnc1C(N)=O [DACARBAZINE]
inhibition in vivo at 15 mg/kg (B16 [18]): 49.9%

SMILES: CCOC(=O)N1CCN(/[N+]([O-])=N/OCCS(=O)(=O)C[C@H](NC(=O)CC[C@H](N)C(=O)O)C(=O)NCC(=O)O)CC1
Activity (B16 [1]): Active | Activity (HT-29): Active | Activity (MCF7 [2]): Active | Activity (9L-2): inactive

IC50 (B16 [3]): 195 nM | IC50 (MCF7 [4]): 338 nM
SMILES: CCOC(=O)N1CCN(/[N+]([O-])=N/OCCS(=O)(=O)C[C@H](NC(=O)CC[C@H](N)C(=O)OC)C(=O)NCC(=O)OC)CC1
Activity (B16 [1]): Active | Activity (HT-29): Active | Activity (MCF7 [2]): Active | Activity (9L-2): inactive

IC50 (B16 [3]): 928 nM | IC50 (B16 [27]): 553 nM
SMILES: [O-]/[N+](=N\O)N1CCC(O)CC1
